Assay results: US11149013B2, “Crystal form of urate transporter 1 inhibitor and preparation method and use thereof” (Tianjin Institute of Pharmaceutical Research Co., Ltd., priority 2018, dated 2021)

How the values were obtained:
Type in all cases: physicochemical
[1] = Influencing factor test: stability to high humidity; conditions: high humidity 92.5% RH, open weighing bottle
Protocol: (§1) The HPLC conditions for the determination of the crystal form A of the compound TY706 and its raw material in the present invention were as follows: chromatographic column: C18, 5 μu, Φ4.6×150 mm, Waters Atlantis T3; mobile phase A: acetonitrile-methanol=9:1, mobile phase B: 10 mM diammonium hydrogen phosphate (pH was adjusted to 4.30±0.03 with phosphoric acid), gradient elution (Table 2); detection wavelength: 225 nm; column temperature: 35° C.; flow rate: 1.0 mL/min; sample concentration: 0.3 mg/mL; injection volume: 15 μL; solvent for dissolving: phosphate buffer (pH 7.8-8.0; prepared by dissolving 5.59 g of dipotassium hydrogen phosphate and 0.41 g of potassium dihydrogen phosphate by adding water to a volume of 1000 mL).
(§2) The sample of the crystal form A of TY706 prepared in Example 1 and the raw material for the preparation of the crystal form A were simultaneously subjected to influencing factor tests, and they were respectively placed under the conditions of illumination (5000 Lx·hr, with the weighing bottle being placed open), high heat (60° C., with the weighing bottle being placed open), and high humidity (92.5% RH, with the weighing bottle being placed open) for 14 days, and the appearance and the number and total amount of impurities (determined by HPLC) were compared with those measured on day 0, and the results are shown in Table 5-7.

[2] = Influencing factor test: stability to high heat; conditions: high heat 60° C., open weighing bottle
Protocol: as §1, §2

[3] = Influencing factor test: stability to light; conditions: illumination 5000 Lx·hr, open weighing bottle
Protocol: as §1, §2

| Structure (SMILES) | Appearance ([1]; day 0) | Number of impurities ([1]; day 0, HPLC) | Total amount of impurities ([1]; day 0, HPLC) [%] | Appearance ([1]; day 7) | Number of impurities ([1]; day 7, HPLC) | Total amount of impurities ([1]; day 7, HPLC) [%] | Appearance ([1]; day 14) | Number of impurities ([1]; day 14, HPLC) | Total amount of impurities ([1]; day 14, HPLC) [%] | Appearance ([2]; day 0) | Number of impurities ([2]; day 0, HPLC) | Total amount of impurities ([2]; day 0, HPLC) [%] | Appearance ([2]; day 7) | Number of impurities ([2]; day 7, HPLC) | Total amount of impurities ([2]; day 7, HPLC) [%] | Appearance ([2]; day 14) | Number of impurities ([2]; day 14, HPLC) | Total amount of impurities ([2]; day 14, HPLC) [%] | Appearance ([3]; day 0) | Number of impurities ([3]; day 0, HPLC) | further results |
| --- | --- | --- | --- | --- | --- | --- | --- | --- | --- | --- | --- | --- | --- | --- | --- | --- | --- | --- | --- | --- | --- |
| O=C(O)CSc1nnc(Br)n1Cc1ccc(Br)c2ccccc12 [Crystal form A of TY706] | White solid | 4 | 0.24 | White solid | 4 | 0.24 | White solid | 4 | 0.25 | White solid | 4 | 0.24 | White solid | 4 | 0.25 | White solid | 5 | 0.26 | White solid | 4 | Total amount of impurities ([3]; day 0, HPLC): 0.24%; Appearance ([3]; day 7): White solid; Number of impurities ([3]; day 7, HPLC): 6; Total amount of impurities ([3]; day 7, HPLC): 0.28%; Appearance ([3]; day 14): White solid; Number of impurities ([3]; day 14, HPLC): 7; Total amount of impurities ([3]; day 14, HPLC): 0.41% |
| O=C(O)CSc1nnc(Br)n1Cc1ccc(Br)c2ccccc12 [TY706 raw material] | White solid | 11 | 0.69 | White solid | 12 | 0.72 | White solid | 14 | 0.84 | White solid | 11 | 0.69 | White solid | 12 | 0.78 | White solid | 15 | 1.19 | White solid | 11 | Total amount of impurities ([3]; day 0, HPLC): 0.69%; Appearance ([3]; day 7): White solid; Number of impurities ([3]; day 7, HPLC): 13; Total amount of impurities ([3]; day 7, HPLC): 1.13%; Appearance ([3]; day 14): Light yellow; Number of impurities ([3]; day 14, HPLC): 25; Total amount of impurities ([3]; day 14, HPLC): 2.68% |
